Test results: the NIST ThermoML archive (doi:10.1021/je200721d)

Assay: xn = mol fraction of the nth substance listed
Conditions: Liquid, Vibrating tube method

CCCCCCCC [octane] + CCCCCC
Conditions	mass density [kg/m3]
342.93 K, 1000 kPa, x2 = 0.5749	640.49
342.93 K, 2000 kPa, x2 = 0.5749	641.81
342.93 K, 3000 kPa, x2 = 0.5749	643.05
342.93 K, 4000 kPa, x2 = 0.5749	644.29
342.93 K, 5000 kPa, x2 = 0.5749	645.58
342.93 K, 6000 kPa, x2 = 0.5749	646.83
342.93 K, 7000 kPa, x2 = 0.5749	648.05
342.93 K, 8000 kPa, x2 = 0.5749	649.28
342.93 K, 9000 kPa, x2 = 0.5749	650.49
342.93 K, 10000 kPa, x2 = 0.5749	651.67
342.93 K, 11000 kPa, x2 = 0.5749	652.87
342.93 K, 12000 kPa, x2 = 0.5749	654.03
342.93 K, 13000 kPa, x2 = 0.5749	655.19
342.93 K, 14000 kPa, x2 = 0.5749	656.31
342.93 K, 15000 kPa, x2 = 0.5749	657.42
342.93 K, 16000 kPa, x2 = 0.5749	658.5
342.93 K, 17000 kPa, x2 = 0.5749	659.57
342.93 K, 18000 kPa, x2 = 0.5749	660.6
342.93 K, 19000 kPa, x2 = 0.5749	661.62
342.93 K, 20000 kPa, x2 = 0.5749	662.6
342.93 K, 21000 kPa, x2 = 0.5749	663.59
342.93 K, 22000 kPa, x2 = 0.5749	664.52
342.93 K, 23000 kPa, x2 = 0.5749	665.48
342.93 K, 24000 kPa, x2 = 0.5749	666.39
342.93 K, 25000 kPa, x2 = 0.5749	667.28
342.94 K, 1000 kPa, x2 = 0.2199	655.33
342.94 K, 2000 kPa, x2 = 0.2199	656.52
342.94 K, 3000 kPa, x2 = 0.2199	657.67
342.94 K, 4000 kPa, x2 = 0.2199	658.87
342.94 K, 5000 kPa, x2 = 0.2199	660.02
342.94 K, 6000 kPa, x2 = 0.2199	661.18
342.94 K, 7000 kPa, x2 = 0.2199	662.34
342.94 K, 8000 kPa, x2 = 0.2199	663.49
342.94 K, 9000 kPa, x2 = 0.2199	664.6
342.94 K, 10000 kPa, x2 = 0.2199	665.73
342.94 K, 11000 kPa, x2 = 0.2199	666.84
342.94 K, 12000 kPa, x2 = 0.2199	667.93
342.94 K, 13000 kPa, x2 = 0.2199	669.01
342.94 K, 14000 kPa, x2 = 0.2199	670.06
342.94 K, 15000 kPa, x2 = 0.2199	671.09
342.94 K, 16000 kPa, x2 = 0.2199	672.1
342.94 K, 17000 kPa, x2 = 0.2199	673.1
342.94 K, 18000 kPa, x2 = 0.2199	674.07
342.94 K, 19000 kPa, x2 = 0.2199	675.02
342.94 K, 20000 kPa, x2 = 0.2199	675.95
342.94 K, 21000 kPa, x2 = 0.2199	676.87
342.94 K, 22000 kPa, x2 = 0.2199	677.76
342.94 K, 23000 kPa, x2 = 0.2199	678.64
342.94 K, 24000 kPa, x2 = 0.2199	679.49
342.94 K, 25000 kPa, x2 = 0.2199	680.34
342.98 K, 1000 kPa, x2 = 0.9308	619.48
342.98 K, 2000 kPa, x2 = 0.9308	620.92
342.98 K, 3000 kPa, x2 = 0.9308	622.34
342.98 K, 4000 kPa, x2 = 0.9308	623.76
342.98 K, 5000 kPa, x2 = 0.9308	625.17
342.98 K, 6000 kPa, x2 = 0.9308	626.56
342.98 K, 7000 kPa, x2 = 0.9308	627.93
342.98 K, 8000 kPa, x2 = 0.9308	629.29
342.98 K, 9000 kPa, x2 = 0.9308	630.63
342.98 K, 10000 kPa, x2 = 0.9308	631.94
342.98 K, 11000 kPa, x2 = 0.9308	633.24
342.98 K, 12000 kPa, x2 = 0.9308	634.53
342.98 K, 13000 kPa, x2 = 0.9308	635.77
342.98 K, 14000 kPa, x2 = 0.9308	637.01
342.98 K, 15000 kPa, x2 = 0.9308	638.23
342.98 K, 16000 kPa, x2 = 0.9308	639.42
342.98 K, 17000 kPa, x2 = 0.9308	640.57
342.98 K, 18000 kPa, x2 = 0.9308	641.7
342.98 K, 19000 kPa, x2 = 0.9308	642.81
342.98 K, 20000 kPa, x2 = 0.9308	643.91
342.98 K, 21000 kPa, x2 = 0.9308	644.95
342.98 K, 22000 kPa, x2 = 0.9308	645.97
342.98 K, 23000 kPa, x2 = 0.9308	646.98
342.98 K, 24000 kPa, x2 = 0.9308	647.95
342.98 K, 25000 kPa, x2 = 0.9308	648.91
342.99 K, 1000 kPa, x2 = 0.1654	657.36
342.99 K, 2000 kPa, x2 = 0.1654	658.52
342.99 K, 3000 kPa, x2 = 0.1654	659.68
342.99 K, 4000 kPa, x2 = 0.1654	660.84
342.99 K, 5000 kPa, x2 = 0.1654	662.01
342.99 K, 6000 kPa, x2 = 0.1654	663.15
342.99 K, 7000 kPa, x2 = 0.1654	664.27
342.99 K, 8000 kPa, x2 = 0.1654	665.4
342.99 K, 9000 kPa, x2 = 0.1654	666.53
342.99 K, 10000 kPa, x2 = 0.1654	667.62
342.99 K, 11000 kPa, x2 = 0.1654	668.73
342.99 K, 12000 kPa, x2 = 0.1654	669.8
342.99 K, 13000 kPa, x2 = 0.1654	670.86
342.99 K, 14000 kPa, x2 = 0.1654	671.91
342.99 K, 15000 kPa, x2 = 0.1654	672.94
342.99 K, 16000 kPa, x2 = 0.1654	673.96
342.99 K, 17000 kPa, x2 = 0.1654	674.95
342.99 K, 18000 kPa, x2 = 0.1654	675.92
